Our source for the cell size changes values is patent US9155765B2, “Establishment of patient- or person-specific cardiac myocyte cell lines from human induced pluripotent stem cells (iPSCs)” (Baylor Research Institute, priority 2011, dated 2015).

The experiment deals with derived cardiac cell line. Put plainly: Effect of hypertrophy inducing drugs on derived cardiac cell line (cell size change). The settings on record: 24 hrs after drug administration; phase-contrast images before and after (FIG. 8). The experiment is classed as cell-based, human. As to the method: The effect of hypertrophy inducing drugs on derived cardiac cell line was tested. A response to cardiac toxic reagents is important in evaluating the properties of derived cardiac cell line and the future usage of the cells for testing cardiac toxic reagents as well as the mechanistic study on cardiomyopathy. Tumor necrosis factor (TNF)-α was used for the induction and compared the cell size changes at 24 hrs after drug administration.

Turning to Tumor necrosis factor (TNF)-α [TNF-α], the cell size changes result is reported as “increase in the sizes of treated cardiac cells”.
